From US10343992B2, “1-cyano-pyrrolidine compounds as USP30 inhibitors” (MISSION THERAPEUTICS LIMITED, priority 2015, dated 2019)

Molecular target: USP30 (Homo sapiens (Human), UniProt Q70CQ3)
Experiment: USP30 biochemical FP or FI IC50 assay
Conditions: read-out: IC50 range
Method in brief: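 Human USP30 preincubated 30 min at room temperature with compound (8-point series, 100 µM top final) in Tris pH 7.5, Tween 20, BSA, 5 mM β-mercaptoethanol, in duplicate. FP format: 50 nM TAMRA-peptide–isopeptide-ubiquitin substrate, ex 540/em 590. FI format: 100 nM ubiquitin-rhodamine 110, ex 487/em 535. Both read at 0 and after 2 h at room temperature.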

Sequence of USP30 (Q70CQ3 57-517): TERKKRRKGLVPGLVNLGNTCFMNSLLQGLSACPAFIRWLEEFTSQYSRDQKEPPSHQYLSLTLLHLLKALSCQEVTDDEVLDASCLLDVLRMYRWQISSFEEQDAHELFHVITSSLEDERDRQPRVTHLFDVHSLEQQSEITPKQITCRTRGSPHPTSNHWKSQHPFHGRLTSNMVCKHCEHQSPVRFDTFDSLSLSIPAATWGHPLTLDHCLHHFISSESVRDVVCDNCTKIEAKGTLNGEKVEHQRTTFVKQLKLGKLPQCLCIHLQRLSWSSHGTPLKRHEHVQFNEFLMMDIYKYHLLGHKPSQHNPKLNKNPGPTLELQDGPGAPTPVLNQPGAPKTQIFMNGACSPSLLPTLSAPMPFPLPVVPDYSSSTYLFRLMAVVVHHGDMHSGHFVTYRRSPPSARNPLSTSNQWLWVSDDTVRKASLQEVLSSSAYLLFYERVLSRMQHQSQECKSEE

`N#CN1C[C@H]2CCN(C(=O)c3ccc(F)c(-c4ccncc4)c3)[C@H]2C1` (racemic) [Example 57, rac-(3aR,6aR)-1-(4-fluoro-3-(pyridin-4-yl)benzoyl)hexahydropyrrolo[3,4-b]pyrrole-5(1H)-carbonitrile] and `N#CN1CC[C@@H](NC(=O)c2ccc(F)c(-c3ccncc3)c2)C1` [Example 42, (R)-N-(1-cyanopyrrolidin-3-yl)-4-fluoro-3-(pyridin-4-yl)benzamide] fall in the same range of IC50: 100 to 1000 nM for the first, 100 to 1000 nM for the second.

`Cc1nc(-c2ccc(C(=O)N[C@@H]3CCN(C#N)C3)nc2)cc(C(F)(F)F)n1` [Example 180, (R)-N-(1-cyanopyrrolidin-3-yl)-5-(2-methyl-6-(trifluoromethyl)pyrimidin-4-yl)picolinamide] and `N#CN1CC[C@@H](NC(=O)c2ccc(-c3ccnc(C(F)(F)F)n3)cc2F)C1` [Example 183, (R)-N-(1-cyanopyrrolidin-3-yl)-2-fluoro-4-(2-(trifluoromethyl)pyrimidin-4-yl)benzamide] fall in the same range of IC50: 100 to 1000 nM for the first, 100 to 1000 nM for the second.

`Cc1cc(-c2ccc(NC(=O)N3CC[C@@H]4CN(C#N)C[C@@H]43)cc2)ccn1` [Example 242, (3aR,6aR)-5-cyano-N-(4-(2-methylpyridin-4-yl)phenyl)hexahydropyrrolo[3,4-b]pyrrole-1(2H)-carboxamide] and `Cc1cc(-c2cccc(NC(=O)N3CC[C@@H]4CN(C#N)C[C@@H]43)c2)ccn1` [Example 241, (3aR,6aR)-5-cyano-N-(3-(2-methylpyridin-4-yl)phenyl)hexahydropyrrolo[3,4-b]pyrrole-1(2H)-carboxamide] cannot be ordered by IC50: under 100 nM for the first, under 100 nM for the second.

`CN(C(=O)Nc1cn2ccccc2n1)[C@@H]1CCN(C#N)C1` [Example 50, (R)-1-(1-cyanopyrrolidin-3-yl)-3-(imidazo[1,2-a]pyridin-2-yl)-1-methylurea] and `CN(C(=O)N1CCOC(c2ccccc2)C1)[C@@H]1CCN(C#N)C1` (stereo partly drawn) [Example 264, N-((R)-1-cyanopyrrolidin-3-yl)-N-methyl-2-phenylmorpholine-4-carboxamide] fall in the same range of IC50: 100 to 1000 nM for the first, 100 to 1000 nM for the second.

`Cn1cc(-c2ccc3c(C(=O)N[C@@H]4CCN(C#N)C4)n[nH]c3c2)cn1` [Example 127, (R)-N-(1-cyanopyrrolidin-3-yl)-6-(1-methyl-1H-pyrazol-4-yl)-1H-indazole-3-carboxamide] and `N#CN1CC[C@@H](NC(=O)c2ccc(-c3ccccn3)cn2)C1` [Example 216, (R)-N-(1-cyanopyrrolidin-3-yl)-[2, 3′-bipyridine]-6′-carboxamide] fall in the same range of IC50: 100 to 1000 nM for the first, 100 to 1000 nM for the second.

First: N#CN1CC[C@@H](NC(=O)c2cc(-c3ccccc3)ccn2)C1 [Example 30, (R)-N-(1-cyanopyrrolidin-3-yl)-4-phenylpicolinamide]
Second: N#CN1CCC(NC(=O)c2cccc(N3CCC(Oc4ccccc4)CC3)n2)C1 (racemic) [Example 26, N-(1-cyanopyrrolidin-3-yl)-6-(4-phenoxypiperidin-1-yl)picolinamide]
The IC50 of the first is lower: 100 to 1000 nM for the first, 1000 to 10000 nM for the second.

`N#CN1C[C@H]2CCN(C(=O)c3cc(-c4ccccc4)n[nH]3)[C@H]2C1` (stereo in doubt) [Example 246, 1-(3-phenyl-1H-pyrazole-5-carbonyl)hexahydropyrrolo[3,4-b]pyrrole-5(1H)-carbonitrile] was tested, and the IC50 was 100 to 1000 nM.
